Assay results as given in ChEMBL document CHEMBL5154856, “Targeting the tumor microenvironment by an enzyme-responsive prodrug of tubulin destabilizer for triple-negative breast cancer therapy with high safety” (Eur J Med Chem, 2022).
Calls of active or inactive are those of the source. No cut-off for these calls is given here.

Columns and labels:
SK-OV-3 [1] = experiment: Antiproliferative activity against human SK-OV-3 cells assessed as inhibition of cell growth incubated for 48 hrs in absence of beta-glucuronidase by MTT assay; type: functional, cell-based; details: SK-OV-3, 48 h
[2] = Aqueous solubility of compound in PBS at pH 7.4 at 1 mg incubated for 10 mins by HPLC analysis; type: physicochemical
HeLa [3] = experiment: Antiproliferative activity against human HeLa cells assessed as inhibition of cell growth incubated for 48 hrs in presence of beta-glucuronidase by MTT assay; type: functional, cell-based
[4] = Metabolic stability in rat liver microsomes assessed as parent compound remaining at 10 mM measured up to 60 mins in presence of NADPH by LC-MS/MS analysis; type: ADME, Microsome; details: read-out: Stability
[5] = Metabolic stability in rat liver microsomes assessed as intrinsic clearance in liver at 10 mM measured up to 60 mins in presence of NADPH by LC-MS/MS analysis; type: ADME, Microsome; details: read-out: CLH
[6] = Metabolic stability in rat liver microsomes assessed as half life at 10 mM measured up to 60 mins in presence of NADPH by LC-MS/MS analysis; type: ADME, Microsome
MDA-MB-231 [7] = experiment: Antiproliferative activity against human MDA-MB-231 cells assessed as inhibition of cell growth incubated for 48 hrs in absence of beta-glucuronidase by MTT assay; type: functional, cell-based; details: MDA-MB-231, 48 h
SK-OV-3 [8] = experiment: Antiproliferative activity against human SK-OV-3 cells assessed as inhibition of cell growth incubated for 48 hrs in presence of beta-glucuronidase by MTT assay; type: functional, cell-based; details: SK-OV-3, 48 h
HeLa [9] = experiment: Antiproliferative activity against human HeLa cells assessed as inhibition of cell growth incubated for 48 hrs in absence of beta-glucuronidase by MTT assay; type: functional, cell-based
[10] = Chemical stability of compound at pH 7.4 in PBS buffer at 1 mg incubated for 48 hrs by HPLC analysis; type: physicochemical; details: pH 7.4, 48 h
[11] = Stability of compound in phosphate buffer at pH 7.4 assessed as Escherichia coli beta-glucuronidase mediated compound cleavage at 1.2 mg measured after 10 mins by HPLC analysis; type: ADME; details: pH 7.4, 10 min
MDA-MB-231 [12] = experiment: Antiproliferative activity against human MDA-MB-231 cells assessed as inhibition of cell growth incubated for 48 hrs in presence of beta-glucuronidase by MTT assay; type: functional, cell-based; details: MDA-MB-231, 48 h
MCF7 [13] = experiment: Antiproliferative activity against human MCF7 cells assessed as inhibition of cell growth incubated for 48 hrs in presence of beta-glucuronidase by MTT assay; type: functional, cell-based; details: MCF7, 48 h
[14] = Metabolic stability in rat liver microsomes assessed as intrinsic clearance in microsomes at 10 mM measured up to 60 mins in presence of NADPH by LC-MS/MS analysis; type: ADME, Microsome; details: read-out: CLH
MCF7 [15] = experiment: Antiproliferative activity against human MCF7 cells assessed as inhibition of cell growth incubated for 48 hrs in absence of beta-glucuronidase by MTT assay; type: functional, cell-based; details: MCF7, 48 h
[16] = Chemical stability of compound at pH 7.4 in bovine serum at 1 mg incubated for 48 hrs by HPLC analysis; type: ADME, cell-free; details: cattle, pH 7.4, 48 h
[17] = Stability of compound in phosphate buffer at pH 7.4 assessed as Escherichia coli beta-glucuronidase mediated compound cleavage at 1.2 mg measured after 2 hrs by HPLC analysis; type: ADME; details: pH 7.4, 2 h
SK-OV-3 [18] = experiment: cells; details: Homo sapiens, SK-OV-3, 48 h
Description: Antiproliferative activity against human SK-OV-3 cells assessed as inhibition of cell growth incubated for 48 hrs by MTT assay

HeLa [19] = experiment: Antiproliferative activity against human HeLa cells assessed as inhibition of cell growth incubated for 48 hrs by MTT assay; type: functional, cell-based
MDA-MB-231 [20] = experiment: Antiproliferative activity against human MDA-MB-231 cells assessed as inhibition of cell growth incubated for 48 hrs by MTT assay; type: functional, cell-based; details: MDA-MB-231, 48 h
MCF7 [21] = experiment: Antiproliferative activity against human MCF7 cells assessed as inhibition of cell growth incubated for 48 hrs by MTT assay; type: functional, cell-based; details: MCF7, 48 h
[22] = Toxicity in nude mouse assessed as effect on alkaline phosphatase level in serum at 3.75 mg/kg, iv administered qd for 3 days (reference value: 66 U/L); type: organism-based; details: in vivo, 72 h, time 3 day
[23] = Cardiotoxicity in nude mouse assessed as prolonged QT intervals at 5 mg/kg, iv administered once daily for 3 days by ECG analysis; type: toxicity, organism-based; details: in vivo, 72 h, time 3 day
[24] = Acute toxicity in BALB/c mouse assessed as lethal dose administered intravenously as single dose and measured after 14 days; details: in vivo, route iv, time 14 day
[25] = Acute toxicity in BALB/c mouse assessed as animal survival at 25 mg/kg, iv administered as single dose measured after 14 days; type: organism-based; details: in vivo, time 14 day
[26] = Toxicity in nude mouse assessed as effect on aspartate aminotransferase level in serum at 3.75 mg/kg, iv administered qd for 3 days (reference value: 424 U/L); type: organism-based; details: in vivo, 72 h, time 3 day
[27] = Toxicity in nude mouse xenografted with human MDA-MB-231 cells assessed as pathological changes in liver at 3.75 mg/kg, iv administered every 2 days for 14 days by H and E staining based assay; type: organism-based; details: in vivo, 336 h, time 14 day
[28] = Toxicity in nude mouse assessed as effect on mean corpuscular hemoglobin concentration at 3.75 mg/kg, iv administered qd for 3 days (reference value: 473 g/L); type: organism-based; details: in vivo, 72 h, time 3 day
[29] = Acute toxicity in BALB/c mouse assessed as animal survival at 100 mg/kg, iv administered as single dose measured after 14 days; type: organism-based; details: in vivo, time 14 day
[30] = Toxicity in nude mouse assessed as effect on platelet distribution width at 3.75 mg/kg, iv administered qd for 3 days (reference value: 20.2); type: organism-based; details: in vivo, 72 h, time 3 day
[31] = Toxicity in nude mouse assessed as effect on globulin level in serum at 3.75 mg/kg, iv administered qd for 3 days (reference value: 16.1 g/L); type: organism-based; details: in vivo, 72 h, time 3 day
[32] = Cardiotoxicity in nude mouse assessed as abnormal spikes at 5 mg/kg, iv administered once daily for 3 days by ECG analysis; type: toxicity, organism-based; details: in vivo, 72 h, time 3 day
[33] = Toxicity in nude mouse assessed as animal death at 5 mg/kg, iv administered 3 consecutive dosages; type: organism-based; details: in vivo
[34] = Toxicity in nude mouse assessed as effect on lymphocyte level at 3.75 mg/kg, iv administered qd for 3 days (reference value: 60.90 %); type: organism-based; details: in vivo, 72 h, time 3 day
[35] = Toxicity in nude mouse assessed as effect on total bilirubin level in serum at 3.75 mg/kg, iv administered qd for 3 days (reference value: 3.3 micromol/L); type: organism-based; details: in vivo, 72 h, time 3 day
[36] = Toxicity in nude mouse assessed as effect on platelet count at 3.75 mg/kg, iv administered qd for 3 days (reference value: 21 10^9/L); type: organism-based; details: in vivo, 72 h, time 3 day
[37] = Toxicity in nude mouse assessed as effect on eosinophil level at 3.75 mg/kg, iv administered qd for 3 days (reference value: 6 %); type: organism-based; details: in vivo, 72 h, time 3 day
[38] = Toxicity in nude mouse assessed as effect on monocytes level at 3.75 mg/kg, iv administered qd for 3 days (reference value: 37.10 %); type: organism-based; details: in vivo, 72 h, time 3 day
[39] = Toxicity in nude mouse assessed as effect on white blood cell count at 3.75 mg/kg, iv administered qd for 3 days (reference value: 0.02 10^9/L); type: organism-based; details: in vivo, 72 h, time 3 day
[40] = Toxicity in nude mouse xenografted with human MDA-MB-231 cells assessed as pathological changes in spleen at 3.75 mg/kg, iv administered every 2 days for 14 days by H and E staining based assay; type: organism-based; details: in vivo, 336 h, time 14 day
[41] = Toxicity in nude mouse assessed as effect on mean corpuscular hemoglobin level at 3.75 mg/kg, iv administered qd for 3 days (reference value: 22.3 pg); type: organism-based; details: in vivo, 72 h, time 3 day
MDA-MB-231 [42] = experiment: Antitumor activity against mouse xenografted with human MDA-MB-231 cells assessed as increase in tumor necrosis area at 3.75 mg/kg, iv administered every 2 days for 14 days by H and E staining based assay; type: functional, organism-based; details: time 14.0 day
[43] = Toxicity in nude mouse assessed as effect on total protein level in serum at 3.75 mg/kg, iv administered qd for 3 days (reference value: 47.3 g/L); type: organism-based; details: in vivo, 72 h, time 3 day
[44] = Toxicity in nude mouse assessed as effect on albumin level in serum at 3.75 mg/kg, iv administered qd for 3 days (reference value: 31.2 g/L); type: organism-based; details: in vivo, 72 h, time 3 day
[45] = Toxicity in nude mouse assessed as effect on neutrophil level at 3.75 mg/kg, iv administered qd for 3 days (reference value: 7.40 %); type: organism-based; details: in vivo, 72 h, time 3 day
[46] = Toxicity in nude mouse xenografted with human MDA-MB-231 cells assessed as pathological changes in kidney at 3.75 mg/kg, iv administered every 2 days for 14 days by H and E staining based assay; type: organism-based; details: in vivo, 336 h, time 14 day
[47] = Toxicity in nude mouse assessed as effect on gamma-glutamyl transpeptidase level in serum at 3.75 mg/kg, iv administered qd for 3 days (Rvb < 2 U/L); type: organism-based; details: in vivo, 72 h, time 3 day
[48] = Toxicity in nude mouse assessed as effect on alanine aminotransferase level in serum at 3.75 mg/kg, iv administered qd for 3 days (reference value: 308 U/L); type: organism-based; details: in vivo, 72 h, time 3 day
[49] = Acute toxicity in BALB/c mouse assessed as animal survival at 12.5 mg/kg, iv administered as single dose measured after 14 days; type: organism-based; details: in vivo, time 14 day
[50] = Toxicity in nude mouse assessed as effect on basophil level at 3.75 mg/kg, iv administered qd for 3 days (reference value: 11.70 %); type: organism-based; details: in vivo, 72 h, time 3 day
[51] = Acute toxicity in BALB/c mouse assessed as animal survival at 70 mg/kg, iv administered as single dose measured after 14 days; type: organism-based; details: in vivo, time 14 day
[52] = Acute toxicity in BALB/c mouse assessed as animal survival at 50 mg/kg, iv administered as single dose measured after 14 days; type: organism-based; details: in vivo, time 14 day

Compound: COc1ccc([C@H]2[C@H](CF)C(=O)N2c2cc(OC)c(OC)c(OC)c2)cc1OCc1ccc(O[C@@H]2O[C@H](C(=O)O)[C@@H](O)[C@H](O)[C@H]2O)cc1
- IC50 (SK-OV-3 [1]): > 50000 nM
- solubility at 10 min [2]: > 40 mg/mL
- IC50 (HeLa [3]): 14.3 nM
- remaining at 1 h [4]: 84.6%
- CLint scaled [5]: < 38 mL/min/kg
- half-life [6]: > 2.42 h
- IC50 (MDA-MB-231 [7]): > 50000 nM
- IC50 (SK-OV-3 [8]): 22.6 nM
- IC50 (HeLa [9]): > 50000 nM
- Stability [10]: Stable
- Stability [11]: Unstable
- IC50 (MDA-MB-231 [12]): 3.5 nM
- IC50 (MCF7 [13]): 15.5 nM
- microsomal CLint [14]: < 9.6 µL/min/mg
- IC50 (MCF7 [15]): > 50000 nM
- Stability [16]: Stable

Compound: COc1cc(C(=O)c2c(N)oc3c(OCc4ccc(O[C@@H]5O[C@H](C(=O)O)[C@@H](O)[C@H](O)[C@H]5O)cc4)c(OC)ccc23)cc(OC)c1OC
- Stability [10]: Stable
- Stability [17]: Unstable
- Stability [16]: Stable

Compound: COc1ccc([C@H]2[C@H](CF)C(=O)N2c2cc(OC)c(OC)c(OC)c2)cc1O
- IC50 (SK-OV-3 [18]): 3.8 nM
- IC50 (HeLa [19]): 6.7 nM
- IC50 (MDA-MB-231 [20]): 1.1 nM
- IC50 (MCF7 [21]): 12.5 nM

Compound: COc1ccc([C@H]2[C@H](CO)C(=O)N2c2cc(OC)c(OC)c(OC)c2)cc1O (racemic)
- Activity [22]: 142 U/L
- Activity [23]: Toxic
- LD50 at 336 h [24]: 65 mg/kg
- survival at 336 h [25]: 100%
- Activity [26]: 503 U/L
- Activity [27]: Non-Toxic
- Activity [28]: 488 g/L
- survival at 336 h [29]: 0%
- Activity [30]: 18.5
- Activity [31]: 15.7 g/L
- Activity [32]: Toxic
- Activity [33]: Toxic
- Activity [34]: 66.7%
- Activity [35]: 6.3 µmol/L
- Activity [36]: 99 10^9/L
- Activity [37]: 18.2%
- IC50 (HeLa [19]): 5.9 nM
- Activity [38]: 7.7%
- Activity [39]: 0.05 10^9/L
- Activity [40]: Non-Toxic
- Activity [41]: 23.5 pg
- Activity (MDA-MB-231 [42]): Active
- Activity [43]: 48.8 g/L
- Activity [44]: 33.1 g/L
- Activity [45]: 7.4%
- IC50 (MDA-MB-231 [20]): 11.9 nM
- IC50 (MCF7 [21]): 14.8 nM
- Activity [46]: Non-Toxic
- Activity [47]: < 2 U/L
- Activity [48]: 196 U/L
- survival at 336 h [49]: 100%
- Activity [50]: 4.7%
- survival at 336 h [51]: 37.5%
- survival at 336 h [52]: 87.5%

Compound: COc1ccc([C@H]2[C@H](CO)C(=O)N2c2cc(OC)c(OC)c(OC)c2)cc1OCc1ccc(O[C@@H]2O[C@H](C(=O)O)[C@@H](O)[C@H](O)[C@H]2O)c([N+](=O)[O-])c1
- Stability [10]: Stable
- Stability [17]: Unstable
- Stability [16]: Stable
